Reference: US6555091B1, “Polypeptide capable of reacting with antibodies of patients suffering from multiple sclerosis and uses” (Bio Merieux, priority 1997, dated 2003)
No end group written: not given here.

Test system: IgG of sera from MS patients and healthy individuals
Assay: ELISA of biotinylated synthetic peptides, IgG response of individual human sera
Assay type: binding
Conditions: for MEAN / OD 1 / OD 2 / OD 3 / BASELINE (mark: above cut-off): 1/100
Experimental: Depending on the information obtained from the preceding examples, the hexapeptides SEQ ID NO: 3 and SEQ ID NO: 4 were synthesized and biotinylated according to the method described in Patent Application No. EP 93420183 with the following modifications: the peptide still bound to the resin is selectively deprotected at the N-terminal position. After overnight incubation with the biotin-NHS at 50% in DMF, the peptide is then cleaved from the resin and treated as described in the patent cited above.
The wells of a Maxisorb (trade name, Nunc) microtiter plate are saturated with 100 μl of a 50 mM NaHCO3 solution, pH 9.6, containing 10 μg/ml of streptavidin for 2 hours at 37° C. The plate is washed with TBS/0.05% Tween 20 buffer. The wells are then saturated with 250 μl of wash buffer supplemented with 10% goat serum for 1 hour at 37° C. and then washed as described above.
The sera to be analyzed are diluted 1/100 in saturation buffer, supplemented with 0.05% Tween 20 and incubated for 2 hours at 37° C. After washing, a solution of peroxidase-labeled anti-human immunoglobulin G goat antibody conjugate (marketed by Jackson Immuno Research Laboratories Inc.) is added at the dilution of 1/10,000 and the plates are incubated for 1 hour at 37° C. After washes, the ortho-phenylenediamine (OPD) substrate is added and the reaction is stopped after 10 minutes by adding 50 μl of H2SO4. The optical density is read at 492 nm.
In a test carried out with 1/100 dilutions of 11 English sera from MS patients at the remission stage and 4 negative English sera, the peptides SEQ ID NOs: 3 and 4 are recognized by 4 sera out of 11 which give a positive IgG signal compared with the negative serum which gave the highest signal.

[1] = IgG, serum 33/6 (MS+, remission)
[2] = IgG, serum 33/8 (MS+, remission)
[3] = IgG, serum 33/18 (MS+, remission)
[4] = IgG, serum No. 12 (MS−, healthy)
[5] = IgG, serum No. 13 (MS−, healthy)
[6] = IgG, serum No. 14 (MS−, healthy)
[7] = IgG, serum No. 15 (MS−, healthy)
[8] = IgG, serum QS 2 (MS+, remission)
[9] = IgG, serum QS 3 (MS+, remission)
[10] = IgG, serum QS 4 (MS+, remission)
[11] = IgG, serum QS 6 (MS+, remission)
[12] = IgG, serum QS 7 (MS+, remission)
[13] = IgG, serum QS 8 (MS+, remission)
[14] = IgG, serum QS 11 (MS+, remission)
[15] = IgG, serum QS 12 (MS+, remission)

LQQAVF [SEQ ID NO: 3]
MS sera giving a positive IgG signal compared with the negative serum which gave the highest signal (1/100 dilutions of 11 sera from MS patients at the remission stage, 4 negative sera): 4 sera out of 11
MS sera recognizing the peptide significantly, cut-off mean of negative sera plus 3 times the standard deviation (IgG, 1/100 dilutions of 11 MS remission sera, 4 negative sera): 3 sera out of 11
BASELINE (IgG, cut-off, mean of negative sera plus 3 times the standard deviation): 815 optical density (×1000)
MEAN [1]: 587 optical density (×1000)
OD 1 [1]: 535 optical density (×1000)
OD 2 [1]: 599 optical density (×1000)
OD 3 [1]: 626 optical density (×1000)
BASELINE (mark: above cut-off) [2]: X (the mean of the values obtained with the negative sera is calculated and 3 times the standard deviation is added in order to determine a cut-off)
MEAN [2]: 1067 optical density (×1000)
OD 1 [2]: 990 optical density (×1000)
OD 2 [2]: 941 optical density (×1000)
OD 3 [2]: 1271 optical density (×1000)
MEAN [3]: 395 optical density (×1000)
OD 1 [3]: 601 optical density (×1000)
OD 2 [3]: 339 optical density (×1000)
OD 3 [3]: 246 optical density (×1000)
MEAN [4]: 639 optical density (×1000)
OD 1 [4]: 550 optical density (×1000)
OD 2 [4]: 640 optical density (×1000)
OD 3 [4]: 726 optical density (×1000)
MEAN [5]: 377 optical density (×1000)
OD 1 [5]: 366 optical density (×1000)
OD 2 [5]: 369 optical density (×1000)
OD 3 [5]: 407 optical density (×1000)
MEAN [6]: 307 optical density (×1000)
OD 1 [6]: 367 optical density (×1000)
OD 2 [6]: 285 optical density (×1000)
OD 3 [6]: 270 optical density (×1000)
MEAN [7]: 452 optical density (×1000)
OD 1 [7]: 439 optical density (×1000)
OD 2 [7]: 496 optical density (×1000)
OD 3 [7]: 422 optical density (×1000)
MEAN [8]: 309 optical density (×1000)
OD 1 [8]: 294 optical density (×1000)
OD 2 [8]: 339 optical density (×1000)
OD 3 [8]: 293 optical density (×1000)
MEAN [9]: 727 optical density (×1000)
OD 1 [9]: 618 optical density (×1000)
OD 2 [9]: 784 optical density (×1000)
OD 3 [9]: 779 optical density (×1000)
BASELINE (mark: above cut-off) [10]: X (the mean of the values obtained with the negative sera is calculated and 3 times the standard deviation is added in order to determine a cut-off)
MEAN [10]: 1346 optical density (×1000)
OD 1 [10]: 1161 optical density (×1000)
OD 2 [10]: 1293 optical density (×1000)
OD 3 [10]: 1583 optical density (×1000)
MEAN [11]: 325 optical density (×1000)
OD 1 [11]: 306 optical density (×1000)
OD 2 [11]: 263 optical density (×1000)
OD 3 [11]: 407 optical density (×1000)
BASELINE (mark: above cut-off) [12]: X (the mean of the values obtained with the negative sera is calculated and 3 times the standard deviation is added in order to determine a cut-off)
MEAN [12]: 1355 optical density (×1000)
OD 1 [12]: 1307 optical density (×1000)
OD 2 [12]: 1298 optical density (×1000)
OD 3 [12]: 1461 optical density (×1000)
MEAN [13]: 615 optical density (×1000)
OD 1 [13]: 664 optical density (×1000)
OD 2 [13]: 635 optical density (×1000)
OD 3 [13]: 545 optical density (×1000)
MEAN [14]: 235 optical density (×1000)
OD 1 [14]: 429 optical density (×1000)
OD 2 [14]: 169 optical density (×1000)
OD 3 [14]: 108 optical density (×1000)
MEAN [15]: 398 optical density (×1000)
OD 1 [15]: 405 optical density (×1000)
OD 2 [15]: 472 optical density (×1000)
OD 3 [15]: 316 optical density (×1000)
